From BigSolDB 2.1

**Q.** Which solubility (mole fraction) (in 2-butoxyethanol, 278.2 K) does the source give for `CC(=O)Oc1ccc(C2CC(=O)c3c(OC(C)=O)cc(OC(C)=O)cc3O2)cc1` (stereo not given) here?
**A.** 0.0018

**Q.** What about the solubility (mole fraction) (in 2-butoxyethanol, 288.2 K) of the same molecule?
**A.** 0.00253

**Q.** What about the solubility (mole fraction) (in 2-butoxyethanol, 298.2 K) of the same molecule?
**A.** 0.00337

**Q.** What about the solubility (mole fraction) (in 2-butoxyethanol, 308.2 K) of the same molecule?
**A.** 0.00476

**Q.** And the solubility (mole fraction) (in 2-butoxyethanol, 318.2 K)?
**A.** 0.00712

**Q.** What about the solubility (mole fraction) (in 2-methoxyethanol, 278.2 K) of the same molecule?
**A.** 0.00836

**Q.** And the solubility (mole fraction) (in 2-methoxyethanol, 288.2 K)?
**A.** 0.0108

**Q.** And the solubility (mole fraction) (in 2-methoxyethanol, 298.2 K)?
**A.** 0.0174

**Q.** What about the solubility (mole fraction) (in 2-methoxyethanol, 308.2 K) of the same molecule?
**A.** 0.0235

**Q.** What about the solubility (mole fraction) (in 2-methoxyethanol, 318.2 K) of the same molecule?
**A.** 0.0356

**Q.** And the solubility (mole fraction) (in 2-propoxyethanol, 278.2 K)?
**A.** 0.00485

**Q.** What about the solubility (mole fraction) (in 2-propoxyethanol, 288.2 K) of the same molecule?
**A.** 0.00629

**Q.** And the solubility (mole fraction) (in 2-propoxyethanol, 298.2 K)?
**A.** 0.00775

**Q.** And the solubility (mole fraction) (in 2-propoxyethanol, 308.2 K)?
**A.** 0.00887

**Q.** What about the solubility (mole fraction) (in 2-propoxyethanol, 318.2 K) of the same molecule?
**A.** 0.0116

**Q.** And the solubility (mole fraction) (in THF, 278.2 K)?
**A.** 0.0413

**Q.** And the solubility (mole fraction) (in THF, 288.2 K)?
**A.** 0.0483

**Q.** What about the solubility (mole fraction) (in THF, 298.2 K) of the same molecule?
**A.** 0.058

**Q.** And the solubility (mole fraction) (in THF, 308.2 K)?
**A.** 0.0732

**Q.** What about the solubility (mole fraction) (in THF, 318.2 K) of the same molecule?
**A.** 0.0902

**Q.** What about the solubility (mole fraction) (in acetone, 278.2 K) of the same molecule?
**A.** 0.0759

**Q.** And the solubility (mole fraction) (in acetone, 288.2 K)?
**A.** 0.0869

**Q.** What about the solubility (mole fraction) (in acetone, 298.2 K) of the same molecule?
**A.** 0.11

**Q.** What about the solubility (mole fraction) (in acetone, 308.2 K) of the same molecule?
**A.** 0.129

**Q.** What about the solubility (mole fraction) (in acetone, 318.2 K) of the same molecule?
**A.** 0.166

**Q.** And the solubility (mole fraction) (in ethanol, 278.2 K)?
**A.** 0.000721

**Q.** What about the solubility (mole fraction) (in ethanol, 288.2 K) of the same molecule?
**A.** 0.000931

**Q.** And the solubility (mole fraction) (in ethanol, 298.2 K)?
**A.** 0.00132

**Q.** What about the solubility (mole fraction) (in ethanol, 308.2 K) of the same molecule?
**A.** 0.00175

**Q.** What about the solubility (mole fraction) (in ethanol, 318.2 K) of the same molecule?
**A.** 0.00239

**Q.** What about the solubility (mole fraction) (in ethyl acetate, 278.2 K) of the same molecule?
**A.** 0.022

**Q.** And the solubility (mole fraction) (in ethyl acetate, 288.2 K)?
**A.** 0.034

**Q.** What about the solubility (mole fraction) (in ethyl acetate, 298.2 K) of the same molecule?
**A.** 0.045

**Q.** What about the solubility (mole fraction) (in ethyl acetate, 308.2 K) of the same molecule?
**A.** 0.0714

**Q.** What about the solubility (mole fraction) (in ethyl acetate, 318.2 K) of the same molecule?
**A.** 0.103

**Q.** And the solubility (mole fraction) (in isopropanol, 278.2 K)?
**A.** 0.000289

**Q.** And the solubility (mole fraction) (in isopropanol, 288.2 K)?
**A.** 0.000426

**Q.** And the solubility (mole fraction) (in isopropanol, 298.2 K)?
**A.** 0.000667

**Q.** What about the solubility (mole fraction) (in isopropanol, 308.2 K) of the same molecule?
**A.** 0.00102

**Q.** What about the solubility (mole fraction) (in isopropanol, 318.2 K) of the same molecule?
**A.** 0.00152

**Q.** What about the solubility (mole fraction) (in methanol, 278.2 K) of the same molecule?
**A.** 0.00122

**Q.** What about the solubility (mole fraction) (in methanol, 288.2 K) of the same molecule?
**A.** 0.00155

**Q.** And the solubility (mole fraction) (in methanol, 298.2 K)?
**A.** 0.00217

**Q.** And the solubility (mole fraction) (in methanol, 308.2 K)?
**A.** 0.00289

**Q.** And the solubility (mole fraction) (in methanol, 318.2 K)?
**A.** 0.00407

**Q.** And the solubility (mole fraction) (in n-butanol, 278.2 K)?
**A.** 0.000228

**Q.** What about the solubility (mole fraction) (in n-butanol, 288.2 K) of the same molecule?
**A.** 0.000353

**Q.** What about the solubility (mole fraction) (in n-butanol, 298.2 K) of the same molecule?
**A.** 0.000491

**Q.** And the solubility (mole fraction) (in n-butanol, 308.2 K)?
**A.** 0.000752

**Q.** What about the solubility (mole fraction) (in n-butanol, 318.2 K) of the same molecule?
**A.** 0.00106

**Q.** And the solubility (mole fraction) (in n-hexanol, 278.2 K)?
**A.** 1.8e-05

**Q.** And the solubility (mole fraction) (in n-hexanol, 288.2 K)?
**A.** 2.4e-05

**Q.** What about the solubility (mole fraction) (in n-hexanol, 298.2 K) of the same molecule?
**A.** 3e-05

**Q.** What about the solubility (mole fraction) (in n-hexanol, 308.2 K) of the same molecule?
**A.** 4.6e-05

**Q.** And the solubility (mole fraction) (in n-hexanol, 318.2 K)?
**A.** 6.4e-05

**Q.** And the solubility (mole fraction) (in n-pentanol, 278.2 K)?
**A.** 0.000249

**Q.** What about the solubility (mole fraction) (in n-pentanol, 288.2 K) of the same molecule?
**A.** 0.000402

**Q.** And the solubility (mole fraction) (in n-pentanol, 298.2 K)?
**A.** 0.000556

**Q.** What about the solubility (mole fraction) (in n-pentanol, 308.2 K) of the same molecule?
**A.** 0.00101

**Q.** And the solubility (mole fraction) (in n-pentanol, 318.2 K)?
**A.** 0.00141

**Q.** And the solubility (mole fraction) (in n-propanol, 278.2 K)?
**A.** 0.000649

**Q.** And the solubility (mole fraction) (in n-propanol, 288.2 K)?
**A.** 0.000873

**Q.** And the solubility (mole fraction) (in n-propanol, 298.2 K)?
**A.** 0.00127

**Q.** And the solubility (mole fraction) (in n-propanol, 308.2 K)?
**A.** 0.00165

**Q.** And the solubility (mole fraction) (in n-propanol, 318.2 K)?
**A.** 0.00245

**Q.** And the solubility (mole fraction) (in sec-butanol, 278.2 K)?
**A.** 0.000216

**Q.** What about the solubility (mole fraction) (in sec-butanol, 288.2 K) of the same molecule?
**A.** 0.000372

**Q.** What about the solubility (mole fraction) (in sec-butanol, 298.2 K) of the same molecule?
**A.** 0.000507

**Q.** What about the solubility (mole fraction) (in sec-butanol, 308.2 K) of the same molecule?
**A.** 0.000824

**Q.** And the solubility (mole fraction) (in sec-butanol, 318.2 K)?
**A.** 0.00122
